The values below come from paper PMC7059793, “Novel Chemical Scaffolds to Inhibit the Neutral Amino Acid Transporter B^0AT1 (SLC6A19), a Potential Target to Treat Metabolic Diseases” (Frontiers in Pharmacology, 2020).

In one assay the target is T1, ASCT2 (SLC1A5) (Homo sapiens, UniProt Q15758).
T1 construct: endogenous in cells; host or cells: 143B TK- cells (human osteosarcoma)
T1 sequence (Q15758 1-541): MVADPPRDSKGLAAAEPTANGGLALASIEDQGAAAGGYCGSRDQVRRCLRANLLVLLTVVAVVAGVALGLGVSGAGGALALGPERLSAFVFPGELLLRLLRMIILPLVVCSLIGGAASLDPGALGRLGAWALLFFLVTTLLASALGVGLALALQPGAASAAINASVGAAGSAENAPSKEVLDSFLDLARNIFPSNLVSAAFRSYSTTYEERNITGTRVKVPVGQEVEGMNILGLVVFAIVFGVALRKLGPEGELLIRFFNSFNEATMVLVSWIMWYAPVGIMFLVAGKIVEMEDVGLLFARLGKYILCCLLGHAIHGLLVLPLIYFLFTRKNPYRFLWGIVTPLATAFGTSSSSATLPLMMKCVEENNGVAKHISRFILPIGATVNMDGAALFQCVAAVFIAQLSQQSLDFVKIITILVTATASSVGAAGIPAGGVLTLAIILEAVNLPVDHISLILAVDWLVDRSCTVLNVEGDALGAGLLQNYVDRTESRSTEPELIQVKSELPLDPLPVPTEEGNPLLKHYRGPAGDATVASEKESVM
Put plainly: Na+-dependent [14C]glutamine uptake in 143B cells. The format is cell-based. The conditions noted are these: inhibitor at 10 μM and 50 μM, 100 μM [14C]glutamine. How it is done:
(§1) CHO-BC cells with passage numbers from 3 to 10 were used in radio-labelled uptake assays. Before the assay, the cells were seeded out in 35 mm dishes (Corning) and maintained for 48–72 h until reaching 80–90% confluence. To initiate transport, the culture medium was removed and the cells washed three times with HBSS + G. Subsequently, cells were incubated with HBSS + G, radiolabelled substrates (150 μM L-[U-^14C]leucine or 150 μM L-[U-^14C]isoleucine) and inhibitors as indicated in the figures or table in a 37°C water bath for 6 min. To terminate transport, cells were washed three times with ice-cold HBSS pH 7.5. For measuring sodium-independent uptake, NaCl in Hank’s buffer was replaced by NMDG-Cl. Cells were then harvested by homogenizing with 500 µl of 0.1 M HCl. An aliquot of 400 µl was used for scintillation counting and the remainder for protein quantification. To investigate inhibition of ASCT2, uptake of 100 μM [^14C]glutamine was measured in 143B cells in the absence and presence of inhibitor (at 10 μM and 50 μM). To measure inhibition of LAT1, uptake of [^14C]leucine was measured in HBSS + G in which NaCl was replaced by NMDG-Cl in 143B cells in the absence and presence of inhibitor (at 10 μM and 50 μM).
To investigate the specificity of the compounds further, we tested them in human 143B osteosarcoma cells, which we have extensively characterised previously and used for pharmacological analysis ([Broer et al., 2018]). Na^+-dependent glutamine transport in 143B cells is largely mediated by ASCT2 (SLC1A5). Na^+-independent transport of leucine, by contrast, is mediated entirely by LAT1.

The target in another assay is T2, B^0AT1 (Homo sapiens, UniProt Q695T7).
T2 construct: expressed in transfected cells
T2 sequence (Q695T7 1-634): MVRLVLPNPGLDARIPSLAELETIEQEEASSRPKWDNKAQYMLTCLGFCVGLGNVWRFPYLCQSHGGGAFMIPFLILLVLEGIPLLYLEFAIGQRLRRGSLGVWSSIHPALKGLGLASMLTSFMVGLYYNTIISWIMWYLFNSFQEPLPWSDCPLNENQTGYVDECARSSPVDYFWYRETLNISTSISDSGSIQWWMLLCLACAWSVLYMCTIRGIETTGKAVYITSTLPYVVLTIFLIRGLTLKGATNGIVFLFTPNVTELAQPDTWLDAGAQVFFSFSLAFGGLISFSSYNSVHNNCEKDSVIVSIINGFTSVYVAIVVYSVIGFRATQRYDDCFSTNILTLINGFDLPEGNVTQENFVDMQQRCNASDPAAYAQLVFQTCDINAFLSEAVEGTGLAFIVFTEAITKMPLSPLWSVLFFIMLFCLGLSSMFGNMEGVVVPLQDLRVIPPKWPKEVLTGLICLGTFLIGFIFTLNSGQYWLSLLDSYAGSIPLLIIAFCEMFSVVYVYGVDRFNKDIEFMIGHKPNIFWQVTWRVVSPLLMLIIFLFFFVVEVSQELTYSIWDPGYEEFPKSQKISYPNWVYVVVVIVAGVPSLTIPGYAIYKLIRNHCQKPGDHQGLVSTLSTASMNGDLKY
T2 sequence (Q9HBJ8 15-222 partner): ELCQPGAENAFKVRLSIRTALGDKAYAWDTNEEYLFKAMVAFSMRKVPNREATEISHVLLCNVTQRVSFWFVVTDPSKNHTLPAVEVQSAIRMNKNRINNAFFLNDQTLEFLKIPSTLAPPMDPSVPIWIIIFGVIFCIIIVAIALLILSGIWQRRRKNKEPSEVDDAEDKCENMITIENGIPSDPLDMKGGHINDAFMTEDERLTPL
Put plainly: Radioactive flux assay (radiolabelled leucine/isoleucine uptake) in CHO-BC cells. The format is cell-based. The conditions noted are these: 150 μM [14C]leucine or [14C]isoleucine, 6 min, 37°C. On the procedure:
as §1
Data are shown as mean ± S.D., transport activities indicated as Na^+-dependent net uptake, were calculated by subtracting the uptake activity in the absence of Na^+ from the total uptake rate. The fluorescent signals measured in the FLIPR assay were normalized to baseline readings before the addition of substrates. Data are presented as percentage of baseline at each time point. IC50 was calculated using the equation: y=ymax(1−[x]/[x]+IC50) .

On to `Cc1cc(C(=O)Nc2ccc(Cl)cc2C(F)(F)F)no1` [CB3], for which, on ASCT2 (SLC1A5), the “Inhibition of Na+-dependent glutamine uptake (ASCT2)” value (“Inhibition” below) was “failed to inhibit”. Moreover, the IC50 at B^0AT1 was determined as 4.9 ± 0.4 µM.
In the case of `Cc1cc(OCC(=O)NC(C)C)cc(C)c1Cl` [Compound E4], the “Inhibition” value on ASCT2 (SLC1A5) is given as “failed to inhibit”. The IC50 at B^0AT1 was 7.7 ± 1.9 µM.
For the compound `COc1ccccc1Nc1nc2ccccc2s1` [Compound E18], at ASCT2 (SLC1A5), the “Inhibition” value was “failed to inhibit”. Also, the IC50 on B^0AT1 worked out at 3.4 ± 0.3 µM.

As a reminder, the IC50 is the midpoint of a concentration-inhibition curve.
